Measured values from ChEMBL document CHEMBL3272017, “Adrenergic sulfonanilides. 4. Centrally active beta-adrenergic agonists” (J Med Chem, 1976).
Calls of active or inactive are those of the source. No cut-off for these calls is given here.

Key:
[1] = test system: Rattus norvegicus; assay: Antagonism of morphine-induced analgesia in rat at 20 mg/kg, sc; type: functional; parameters: scale not given: the % may be the effect or the level left
[2] = Activity at alpha-adrenoceptor in rat seminal vesicle assessed as potency for producing 50% of that of l-epinephrine-induced contraction relative to soterenol; type: tissue-based
[3] = test system: Mus musculus; assay: Analgesic activity in sc dosed mouse assessed as reduction in phenylalanine-induced writhing; type: functional
[4] = organism: Cavia porcellus; assay: Agonist activity at beta-adrenoceptor in guinea pig tracheal spiral assessed as potency for 75% relaxation of spontaneous contraction relative to soterenol; type: tissue-based; conditions: Trachea
[5] = test system: Mus musculus; assay: Inhibition of reserpine-induced ptosis in po dosed mouse; type: functional
[6] = test system: Mus musculus; assay: Reversal of reserpine-induced ptosis in po dosed mouse; type: functional
[7] = test system: Rattus norvegicus; assay: Antagonism of morphine-induced analgesia in sc dosed rat
[8] = test system: Rattus norvegicus; assay: Analgesic activity in sc dosed rat by tail flick test; type: functional
[9] = organism: Rattus norvegicus; conditions: Tail
[10] = test system: Brain; assay: Drug uptake in Sprague-Dawley rat whole brain at 0.2 mg/kg, ip after 30 mins; type: ADME, organism-based; parameters: dose 0.2 mg/kg, route intraperitoneal; conditions: in vivo, 0.5 h
[11] = test system: Hypothalamus; assay: Drug uptake in Sprague-Dawley rat hypothalamus at 0.3 mg/kg, ip after 30 mins; type: ADME, organism-based; parameters: dose 0.3 mg/kg, route intraperitoneal; conditions: in vivo, 0.5 h
[12] = test system: Hypothalamus; assay: Drug uptake in Sprague-Dawley rat hypothalamus at 0.2 mg/kg, ip after 30 mins; type: ADME, organism-based; parameters: dose 0.2 mg/kg, route intraperitoneal; conditions: in vivo, 0.5 h
[13] = organism: Canis familiaris; assay: Anorexiant activity in dog by free feeding method relative to d-amphetamine; type: functional, Canis lupus familiaris
[14] = organism: Rattus norvegicus; assay: Anorexiant activity in rat by free feeding method relative to d-amphetamine; type: functional
[15] = test system: Mus musculus; assay: Inhibition of reserpine-induced ptosis in po dosed mouse at 25 mg/kg, po; type: functional, organism-based; parameters: dose 25 mg/kg
[16] = Blockade of alpha-adrenoceptor in rat seminal vesicle relative to phentolamine; type: tissue-based
[17] = organism: Cavia porcellus; assay: Blockade of beta-adrenoceptor in guinea pig tracheal spiral relative to sotalol; type: tissue-based; conditions: Trachea
[18] = test system: Rattus norvegicus; assay: Antagonism of morphine-induced analgesia in rat at 1.2 mg/kg, sc; type: functional, organism-based; parameters: dose 1.2 mg/kg
[19] = test system: Rattus norvegicus; assay: Effect on cAMP level in Sprague-Dawley rat heart at 0.3 mg/kg, sc after 30 mins; type: functional, organism-based; parameters: dose 0.3 mg/kg
[20] = test system: Rattus norvegicus; assay: Induction of cAMP level in Sprague-Dawley rat hypothalamus at 0.3 mg/kg, sc after 30 mins; type: functional, organism-based; parameters: dose 0.3 mg/kg
[21] = test system: Rattus norvegicus; assay: Effect on cAMP level in Sprague-Dawley rat cortex at 0.3 mg/kg, sc after 30 mins; type: functional, organism-based; parameters: dose 0.3 mg/kg
[22] = test system: Rattus norvegicus; assay: Effect on cAMP level in Sprague-Dawley rat striatum at 0.3 mg/kg, sc after 30 mins; type: functional, organism-based; parameters: dose 0.3 mg/kg
[23] = test system: Rattus norvegicus; assay: Effect on cAMP level in Sprague-Dawley rat liver at 0.3 mg/kg, sc after 30 mins; type: functional, organism-based; parameters: dose 0.3 mg/kg
[24] = test system: Rattus norvegicus; assay: Induction of cAMP level in Sprague-Dawley rat hypothalamus at 0.3 mg/kg, sc cotreated with 15 mg/kg, sc morphine 30 mins before sacrifice; type: functional, organism-based
[25] = Mus musculus, sc, read-out: ED50
[26] = Mus musculus, po, read-out: ED50

CS(=O)(=O)Nc1cc(C(O)CNC2CC2)cc(Cl)c1O.Cl (stereo unspecified)
Activity ([1]; route subcutaneous): 20.8% | fold change (FC) [2]: 4.9 | ED50 [3, 25]: > 6 mg/kg | fold change (FC) [4]: 0.048 | ED50 [5, 26]: 0.072 mg/kg | ED50 [6, 26]: 0.082 mg/kg

CN(C)S(=O)(=O)Nc1cc(C(O)CNC2CC2)ccc1O.Cl (stereo unspecified)
ED50 [7]: 0.72 mg/kg | ED50 [8]: 50 mg/kg | ED50 [3, 25]: 1.7 mg/kg | fold change (FC) [4]: 0.028 | ED50 [5, 26]: 0.94 mg/kg | ED50 [6, 26]: 1.3 mg/kg

CN1CC[C@]23c4c5ccc(O)c4O[C@H]2[C@@H](O)C=C[C@H]3[C@H]1C5.CN1CC[C@]23c4c5ccc(O)c4O[C@H]2[C@@H](O)C=C[C@H]3[C@H]1C5.O=S(=O)(O)O
ED50 [8]: 1.9 mg/kg | ED50 [3, 25]: 0.62 mg/kg

Oc1ccc(C(O)CNC2CC2)cc1 (stereo unspecified)
ED50 [9]: inactive | Activity [1]: inactive | ED50 [3, 25]: 5.6 mg/kg | fold change (FC) [4]: 0.0136

CC(C)NCC(O)c1ccc(O)c(NS(C)(=O)=O)c1.Cl (stereo unspecified) [SOTERENOL HYDROCHLORIDE]
Drug uptake [10]: Not Active | Drug uptake [11]: Active | Drug uptake [12]: Not Active

CS(=O)(=O)Nc1cc(CCNC2CC2)ccc1O.Cl
ED50 [7]: 0.21 mg/kg | fold change (FC) [13]: 5.5 | ED50 [8]: 2.77 mg/kg | fold change (FC) [14]: 5.5 | ED50 [3, 25]: 0.62 mg/kg | fold change (FC) [4]: 0.002 | ED50 [5, 26]: 3.6 mg/kg | ED50 [6, 26]: 1.5 mg/kg

CC(C)(Cc1ccccc1)NCC(O)c1ccc(O)c(NS(C)(=O)=O)c1.Cl (stereo unspecified) [ZINTEROL HYDROCHLORIDE]
ED50 [7]: 18.8 mg/kg | inhibition [15]: inactive | fold change (FC) [13]: 11 | ED50 [9]: inactive | fold change (FC) [2]: 0 | fold change (FC) [14]: 11 | fold change (FC) [4]: 7.9 | fold change (FC) [16]: 0.1

C=CCN1CC[C@]23c4c5ccc(O)c4O[C@H]2[C@@H](O)C=C[C@H]3[C@H]1C5.Cl [NALORPHINE HYDROCHLORIDE]
ED50 [7]: 0.37 mg/kg | ED50 [9]: inactive | ED50 [3, 25]: 2.5 mg/kg

Cc1cc(C(O)CNC2CC2)cc(NS(C)(=O)=O)c1O.Cl (stereo unspecified)
Activity ([1]; route subcutaneous): 20.8% | fold change (FC) [2]: 8.7 | fold change (FC) [4]: 5.8e-05 | ED50 [5, 26]: 0.15 mg/kg | ED50 [6, 26]: 0.67 mg/kg

CCC(Cc1ccc(O)c(NS(C)(=O)=O)c1)NC1CC1.Cl (stereo unspecified)
ED50 [3, 25]: > 6 mg/kg | fold change (FC) [4]: 0.0013

CCOC(CNC1CC1)c1ccc(O)c(NS(C)(=O)=O)c1.Cl (stereo unspecified)
Activity [1]: inactive | ED50 [3, 25]: > 6 mg/kg | ED50 [5, 26]: 35 mg/kg | ED50 [6, 26]: 9.6 mg/kg

CCN(CC(O)c1ccc(O)c(NS(C)(=O)=O)c1)C1CC1.Cl (stereo unspecified)
Activity [1]: inactive | ED50 [3, 25]: > 6 mg/kg

CC[C@H](NC1CC1)[C@H](O)c1ccc(O)c(NS(C)(=O)=O)c1.Cl (relative stereo)
Activity [1]: inactive | fold change (FC) [2]: 0 | ED50 [3, 25]: > 6 mg/kg | fold change (FC) [4]: 0.23 | ED50 [5, 26]: 20 mg/kg | fold change (FC) [16]: 0.000045 | ED50 [6, 26]: 8.9 mg/kg

CS(=O)(=O)Nc1cc(C(=O)CNC2CC2)ccc1O.Cl
Activity [1]: inactive | ED50 [3, 25]: > 6 mg/kg

CS(=O)(=O)Nc1ccc(C(O)CNC2CC2)cc1 (stereo unspecified)
Activity [1]: inactive

C[C@H](NC1CC1)[C@H](O)c1cccc(NS(C)(=O)=O)c1.Cl (relative stereo)
fold change (FC) [17]: 0.1 | ED50 [3, 25]: > 6 mg/kg

CS(=O)(=O)Nc1cc(C(O)CNC2CC2)ccc1O (stereo in doubt; 46)
Activity [18]: inactive | fold change (FC) [4]: 0.0035

CS(=O)(=O)Nc1cc(C(O)CNC2(Cc3ccccc3)CC2)ccc1O.Cl (stereo unspecified)
ED50 [7]: 4.7 mg/kg | fold change (FC) [4]: 0.14 | ED50 [5, 26]: 0.15 mg/kg | ED50 [6, 26]: 0.32 mg/kg

Oc1ccc(C(O)CNC2CC2)cc1Cl (stereo unspecified)
Activity ([1]; route subcutaneous): 14.5% | ED50 [3, 25]: > 6 mg/kg

CN(C)CCCN1c2ccccc2CCc2ccccc21.Cl [IMIPRAMINE HYDROCHLORIDE]
ED50 [5, 26]: 4.97 mg/kg | ED50 [6, 26]: > 320 mg/kg

CS(=O)(=O)Nc1cc(C(O)CNC2CC2)ccc1O (single isomer, unassigned; (-))
fold change (FC) [4]: 1.9

CS(=O)(=O)Nc1cccc(C(O)CNC2CC2)c1.Cl (stereo unspecified)
fold change (FC) [17]: 0.05 | ED50 [3, 25]: > 6 mg/kg | fold change (FC) [4]: < 0.01 | ED50 [5, 26]: 1 mg/kg | ED50 [6, 26]: 0.8 mg/kg

CS(=O)(=O)Nc1cc(C(O)CNC2CC2)ccc1O.Cl (single isomer, unassigned; (-))
fold change (FC) [2]: 108 | ED50 [3]: 0.66 mg/kg | ED50 [5]: 0.175 mg/kg | ED50 [6]: 0.23 mg/kg

CC(C)(Cc1ccccc1)NCCc1ccc(O)c(NS(C)(=O)=O)c1
Activity [1]: inactive | fold change (FC) [4]: 0.31

CC(C)NCC(O)c1ccc(O)c(NS(C)(=O)=O)c1 (stereo unspecified) [SOTERENOL]
ED50 [3, 25]: > 40 mg/kg | ED50 [5, 26]: 7.6 mg/kg | ED50 [6, 26]: 16.5 mg/kg

CC(N)Cc1ccccc1.O=S(=O)(O)O (racemic) [AMPHETAMINE SULFATE]
ED50 [5, 26]: 0.67 mg/kg | ED50 [6, 26]: 1.94 mg/kg

Cl.Oc1ccc(CCNC2CC2)cc1O
Activity ([1]; route subcutaneous): 32.8% | ED50 [3, 25]: > 6 mg/kg

CS(=O)(=O)Nc1cc(C(O)CNC2CC2)ccc1O.Cl (stereo unspecified)
Drug uptake [10]: Not Active | Drug uptake [11]: Active | Drug uptake [12]: Not Active

CC(C)NCC(O)c1ccc(O)c(NS(C)(=O)=O)c1 (stereo unspecified)
ED50 [9]: inactive | Activity [1]: inactive

CC1(NCC(O)c2ccc(O)c(NS(C)(=O)=O)c2)CC1.Cl (stereo unspecified)
ED50 [7]: 1 mg/kg | fold change (FC) [4]: 2.33 | ED50 [5, 26]: 0.52 mg/kg | ED50 [6, 26]: 1.1 mg/kg

CS(=O)(=O)Nc1cc(C(O)CNC2CC2)ccc1O (stereo in doubt; 44)
Activity [19]: inactive | Activity [20]: Active | Activity [21]: inactive | Activity [22]: inactive | Activity [23]: inactive | fold change (FC) [4]: 0.7 | Activity [24]: Active

CS(=O)(=O)Nc1cc(C(O)CNC2CC2)ccc1O.Cl (stereo in doubt; 44)
ED50 [7]: 0.275 mg/kg | fold change (FC) [13]: 22 | ED50 [8]: 5 mg/kg | fold change (FC) [2]: 68.8 | fold change (FC) [14]: 22 | ED50 [3]: 0.56 mg/kg | ED50 [5]: 0.265 mg/kg | ED50 [6, 26]: 0.255 mg/kg

C[C@H](NC1CC1)[C@H](O)c1ccc(O)c(NS(C)(=O)=O)c1.Cl (relative stereo)
Activity [1]: inactive | fold change (FC) [4]: 0.11 | ED50 [5, 26]: 0.51 mg/kg | ED50 [6, 26]: 0.76 mg/kg

CS(=O)(=O)Nc1cc(O)cc(C(O)CNC2CC2)c1.Cl (stereo unspecified)
Activity [2]: Not Active | Activity [4]: inactive

CS(=O)(=O)Nc1cc(C(O)CNC2CC2)ccc1O.Cl (stereo in doubt; 46)
fold change (FC) [2]: 0 | ED50 [3]: >50 mg/kg | ED50 [5]: 31.3 mg/kg

CS(=O)(=O)Nc1cc(C(O)CNC2CCC2)ccc1O.Cl (stereo unspecified)
ED50 [3, 25]: > 6 mg/kg | fold change (FC) [4]: 0.36 | ED50 [5, 26]: 20 mg/kg | ED50 [6, 26]: 24 mg/kg
